We go through 18 compounds from patent publication US10408813B2, “Biosensor for detecting intracellular cyclic adenosine monophosphate (cAMP) and uses thereof” (Academia Sinica, priority 2015, dated 2019).

For assay [1], the target named is GLP-1R (UniProt P01275+P32301). In words: BRET cAMP response assay in RINm5F cells, GLP-1R-mediated cAMP production. It counts as cell-based, rat. The following applies: for effect on dose response curve / potency of GLP-1 (7-36) amide: lipids at concentrations indicated in FIG. 4C-E (ODA 72 uM); for effect on cAMP responses to 200 μM of GLP-1 (7-36) amide: 9 uM OEA or 8.4 uM 2-OG; for effect on dose-response curve for GLP-1 (7-36) amide to stimulate cAMP production: lipid at 9 to 8 uM; for effect on potency of Ex-4 to stimulate cAMP production: lipid up to 27 uM; for effect on dose response curve of GLP-1 (7-36) amide: OA and LA at 106 and 107 uM, respectively. In general terms: Bioluminescence resonance energy transfer reports proximity on the nanometre scale.

Assay [2] concerns the target receptors for glucagon (Rattus norvegicus, UniProt P30082). In words: BRET cAMP response assay in RINm5F cells, glucagon receptor. The class given is cell-based. Particulars: 100 uM antagonist (FIG. 3C).
Assay [3] addresses T1, His-tagged GLP-1 (7-36) (Homo sapiens, UniProt P01275).
T1 construct: purchased LifeTein
Nature of the assay: GLP-1 and OEA binding assay (3H-OEA, Cu-NTA resin capture). Here is the method:
Specific bound ^3H-OEA was obtained by subtracting the supernatant ^3H-OEA of reaction from supernatant ^3H-OEA of reaction without GLP-1. […] Copper-nitrilotriacetate resin (Cu^++-NTA), 3 uL in 30 uL of DPBS, was added to capture all the His-tagged GLP-1 (up to 60 uM in 80 uL reaction), further incubated with rotation at RT for 30 min. […] Bound ^3H-OEA=[supernatant ^3H-OEA of nonspecific binding]−[supernatant ^3H-OEA of total binding]. […] The bound ^3H-OEA and free ^3H-OEA were separated as described above, and specific binding was calculated; Bound ^3H-OEA=[supernatant ^3H-OEA of nonspecific binding reaction]−[supernatant ^3H-OEA in the total binding reaction]

In assay [4] the target is T2, GLP-1 (7-36) amide (Homo sapiens, UniProt P01275).
T2 construct: purchased LifeTein
In words: Limited trypsin digestion of GLP-1 (7-36) amide, residual activity by cAMP response in RINm5F cells.

Assay [5] addresses T3, GLP-1R-V2R membrane (Homo sapiens, UniProt P01275+P43220).
T3 construct: the first 440 amino acids of the GLP-1R (Met1 to Thr440); expressed in transfected cells; host or cells: U2OS osteosarcoma cells stably co-expressing β-arrestin2:GFP; membrane preparation
Nature of the assay: Receptor binding assay, saturation binding of 125I-GLP-1(7-36).

Assay [6] has as its target T4, trypsin (Sus scrofa, UniProt P00761).
T4 construct: purchased Life Technologies (trypsin-EDTA, inferred); assay kit from BioVision
In words: In vitro assay of trypsin activity in the presence of OEA. The class given is biochemical. The following applies: 92 uM OEA, 0.000125% trypsin. Here is the method: To determine whether OEA affects trypsin activity, we used the Trypsin Activity Colorimetric Test Kit (BioVision, Milpitas, Calif., USA). Briefly, 2 μL substrate was added to a well in 96-well plate containing 48 μL 0.000125% trypsin in the presence or absence of 92 uM OEA. Reactions were conducted at room temperature, and the extent of cleavage was monitored by real-time reading of optical density (OD) at 405 nm

The test system of assay [7] is RINm5F cells. In words: BRET cAMP response assay, lipids present alone. The class given is cell-based, rat. The following applies: 28 μM for 2-OG.
The target of assay [8] is T5, GPR119 (Homo sapiens, UniProt Q8TDV5).
T5 sequence (Q8TDV5 1-335): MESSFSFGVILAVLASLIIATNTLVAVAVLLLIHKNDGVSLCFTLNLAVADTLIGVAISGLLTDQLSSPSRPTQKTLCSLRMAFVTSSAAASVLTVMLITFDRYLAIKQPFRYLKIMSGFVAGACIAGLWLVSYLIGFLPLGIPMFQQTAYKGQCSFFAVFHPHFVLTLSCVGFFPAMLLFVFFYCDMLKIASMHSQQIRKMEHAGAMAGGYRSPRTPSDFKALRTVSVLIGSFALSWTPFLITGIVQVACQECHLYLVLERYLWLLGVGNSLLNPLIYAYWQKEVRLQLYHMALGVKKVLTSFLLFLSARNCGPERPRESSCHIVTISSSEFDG
Particulars: literature (34); read-out: reported EC50 to activate GPR119; cited from earlier work.

For assay [9], the target named is T6, receptors for GIP (Rattus norvegicus, UniProt P43219).
T6 sequence (P43219 19-455): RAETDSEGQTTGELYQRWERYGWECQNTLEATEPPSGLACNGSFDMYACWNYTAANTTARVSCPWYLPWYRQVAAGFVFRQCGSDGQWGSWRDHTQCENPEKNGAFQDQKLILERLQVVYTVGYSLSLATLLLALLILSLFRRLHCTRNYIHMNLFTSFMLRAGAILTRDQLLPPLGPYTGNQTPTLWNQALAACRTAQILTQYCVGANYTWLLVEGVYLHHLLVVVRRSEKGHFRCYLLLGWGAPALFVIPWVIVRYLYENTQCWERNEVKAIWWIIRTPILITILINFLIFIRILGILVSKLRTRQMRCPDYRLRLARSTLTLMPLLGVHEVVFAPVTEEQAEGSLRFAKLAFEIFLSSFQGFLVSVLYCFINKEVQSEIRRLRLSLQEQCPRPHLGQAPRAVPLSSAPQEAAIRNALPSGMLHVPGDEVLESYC
In words: BRET cAMP response assay in RINm5F cells, GIP receptor. The class given is cell-based. Particulars: 5 uM antagonist (FIG. 3B).

For assay [10], the system named is adenylyl cyclase. In words: BRET assay with RG-cAMP sensor, adenylyl cyclase activation by forskolin.
For assay [11], the target named is RG-cAMP sensor in RINm5F cells (Homo sapiens, UniProt O95398, F824A/R193G/T823A). Nature of the assay: BRET assay with RG-cAMP sensor, titration of membrane-permeable cAMP analog.
Setting [12] is: RINm5F cells stably expressing RG-cAMP sensor.

As usually defined, the EC50 is the concentration giving half of the maximal effect. The Ki is the equilibrium dissociation constant of an inhibitor or competing ligand from its target. Low values mean a stronger hold on the target, high ones a looser hold on the target.

GLP-1R, sequence (P32301 22-463, one chain of several): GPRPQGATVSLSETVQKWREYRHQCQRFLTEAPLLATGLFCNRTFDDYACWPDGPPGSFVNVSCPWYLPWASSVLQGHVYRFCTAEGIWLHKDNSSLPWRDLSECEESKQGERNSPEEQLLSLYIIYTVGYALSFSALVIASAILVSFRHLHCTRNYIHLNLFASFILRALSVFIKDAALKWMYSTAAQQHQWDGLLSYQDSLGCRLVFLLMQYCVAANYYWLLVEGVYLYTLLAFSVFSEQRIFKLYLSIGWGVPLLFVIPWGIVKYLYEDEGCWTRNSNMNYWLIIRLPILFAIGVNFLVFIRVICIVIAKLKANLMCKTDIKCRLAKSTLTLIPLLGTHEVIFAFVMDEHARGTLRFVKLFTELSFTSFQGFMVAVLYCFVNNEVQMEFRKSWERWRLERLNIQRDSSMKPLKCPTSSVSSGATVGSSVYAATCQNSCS
T3 sequence (P43220 with tags, fused parts or gaps limits assumed, one chain of several): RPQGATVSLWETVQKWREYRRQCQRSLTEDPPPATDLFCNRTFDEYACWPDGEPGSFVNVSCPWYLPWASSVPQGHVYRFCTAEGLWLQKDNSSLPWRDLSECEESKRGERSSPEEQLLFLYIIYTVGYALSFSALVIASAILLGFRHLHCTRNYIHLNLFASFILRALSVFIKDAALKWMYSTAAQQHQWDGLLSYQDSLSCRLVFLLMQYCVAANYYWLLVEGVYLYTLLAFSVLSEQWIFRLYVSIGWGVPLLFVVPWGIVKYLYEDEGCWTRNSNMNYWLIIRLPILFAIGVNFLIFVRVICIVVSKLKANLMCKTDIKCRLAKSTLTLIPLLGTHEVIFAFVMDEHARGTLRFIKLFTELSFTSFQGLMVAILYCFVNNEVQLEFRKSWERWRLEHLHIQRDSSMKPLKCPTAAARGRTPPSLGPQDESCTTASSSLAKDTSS
T4 sequence (P00761 9-231): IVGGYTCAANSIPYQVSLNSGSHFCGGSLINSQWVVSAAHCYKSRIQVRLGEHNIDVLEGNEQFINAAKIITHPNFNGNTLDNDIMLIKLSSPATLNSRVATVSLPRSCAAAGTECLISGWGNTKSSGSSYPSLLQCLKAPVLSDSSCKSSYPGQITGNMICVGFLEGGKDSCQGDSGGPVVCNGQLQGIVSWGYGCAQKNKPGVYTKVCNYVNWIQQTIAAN
receptors for glucagon, sequence (P30082 27-485): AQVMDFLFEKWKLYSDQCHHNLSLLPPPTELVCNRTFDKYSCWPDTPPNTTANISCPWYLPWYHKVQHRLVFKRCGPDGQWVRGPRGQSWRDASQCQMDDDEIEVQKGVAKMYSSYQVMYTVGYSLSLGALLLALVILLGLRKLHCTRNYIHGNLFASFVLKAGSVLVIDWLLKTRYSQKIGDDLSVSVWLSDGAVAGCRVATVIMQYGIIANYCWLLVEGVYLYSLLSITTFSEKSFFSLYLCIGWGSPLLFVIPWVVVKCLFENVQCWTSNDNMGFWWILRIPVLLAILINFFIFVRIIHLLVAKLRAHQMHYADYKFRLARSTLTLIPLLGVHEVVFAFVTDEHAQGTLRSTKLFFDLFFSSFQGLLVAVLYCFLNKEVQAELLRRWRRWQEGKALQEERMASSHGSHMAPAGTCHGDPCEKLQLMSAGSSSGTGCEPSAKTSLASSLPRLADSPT

As for `CCCCC/C=C\C/C=C\C/C=C\CCCCC(=O)O` [γ-LA, γ-linolenic acid], in [1], the “effect on dose response curve / potency of GLP-1 (7-36) amide” value (from here on “effect on dose response curve / potency”) was “did not show such an effect”.

In the case of “[des-His1,Glu9]-glucagon amide: glucagon antagonist”, in [2], the “effect of antagonist on cAMP response to glucagon” value is given as “curtailed”.

Regarding `CCCCCCCCCCCCCCCCCC(=O)NCCO` [SEA, stearoylethanolamide], in assay [1], the “effect on dose response curve / potency” value is given as “did not affect GLP-1 potency”. Moreover, the “effect on binding of 3H-OEA to His-tagged GLP-1(7-36)” value in assay [3] (competition assay) is on record as “did not affect the binding”. The “effect on trypsin digestion of GLP-1 (7-36) amide” value in assay [4] (1 uM to 92 uM lipid, 0.00067% trypsin) is “did not affect trypsin digestion”.

With `CCCCCCCCCCCCCCCCCC(=O)O` [SA, stearic acid], the “effect on dose response curve / potency” value in assay [1] is on record as “did not show such an effect”.

In the case of `CCCCCCCCCCCCCCCC(=O)NCCO` [PEA, palmitoylethanolamide], the “effect on dose response curve / potency” value in assay [1] is given as “did not affect GLP-1 potency”.

As for `CCCCCCCC/C=C\CCCCCCCC(=O)NCCO` [OEA, oleoylethanolamide], in [1], the “effect on cAMP responses to 200 μM of GLP-1 (7-36) amide” value was “remarkably enhanced”, the “effect on dose-response curve for GLP-1 (7-36) amide to stimulate cAMP production” value is “markedly left-shifted” and the “effect on potency of Ex-4 to stimulate cAMP production” value is given as “unaltered”. The “Bmax of 125I-GLP-1” value in [5] (in the presence of 9.2 uM OEA) is listed as 51±6.5 pmole/mg of membrane. In addition, in assay [6], the “effect on innate trypsin activity” value is on record as “does not affect the innate trypsin activity”. Also, the “factor of reduction of residual activity of GLP-1 (7-36) amide after trypsin digestion” value in assay [4] (0.00067% trypsin, OEA increased from 1 uM to 92 uM) is reported as “more than 40”. The “factor of reduction of GLP-1 activity after trypsin cleavage” value in [4] (trypsin cleavage in the presence of 92 uM OEA) is given as “more than 300”. In addition, the “cAMP response to lipid present alone” value in [7] is “did not elicit cAMP responses”. Also, the EC50 in assay [8] was 2900 nM.

For the compound “GIP(8-42): GIP antagonist, SEQ ID NO: 14 (SDYSIAMDKIHQQDFVNWLLAQKGKKNDWKHNITQ; GIP 8-42)”, the “effect of antagonist on cAMP response to GIP” value in assay [9] is on record as “curtailed”.

For `Cl.c1ccc(C2CCCC2NC2=NCCCCCCCCCCC2)cc1` (stereo not shown) [MDL-12,330A], in assay [10] (250 μM inhibitor), the “effect on forskolin-elicited BRET response” value is “eliminated”.

For `CCCCCCCC/C=C\CCCCCCCC(=O)NCCc1ccc(O)c(O)c1` [ODA, n-oleoyldopamine], the “effect on dose response curve / potency” value in assay [1] is “did not affect GLP-1 potency”.

`CC/C=C\C/C=C\C/C=C\CCCCCCCC(=O)O` [ALA, α-linolenic acid]: in assay [1], the “effect on dose response curve / potency” value was “did not show such an effect”.

Take `[3H]/C(CCCCCCCC)=C(\[3H])CCCCCCCC(=O)NCCO` [^3H-OEA, Oleoyl [9,10-^3H]ethanolamide, reference compound]: the “concentration of 3H-OEA to achieve half-maximal binding” value in assay [3] (0.1 uM His-tagged GLP-1 (7-36), estimated) is 0.28 ± 0.07 µM. For the same compound, in assay [5], the “specific binding to GLP-1 receptor” value is listed as “not able to observe detectable specific binding”.

Take “Ex-9: GLP-1 receptor antagonist exendin 9 [reference compound]”: the “effect of antagonist on cAMP response to GLP-1 (7-36) amide” value in assay [1] (500 nM antagonist (FIG. 3A)) is recorded as “curtailed”. Moreover, the “lipid enhancement and cAMP responses with GLP-1 receptor signaling blocked” value in assay [1] (500 nM exendin 9, GLP-1 (7-36) amide with OEA or 2-OG) is reported as “barely detectable”.

For the compound “His-tagged GLP-1 (7-36): SEQ ID NO: 6, six consecutive histidine residues tagged to the C-terminal of GLP-1 (7-36) peptide (HAEGTFTSDVSSYLEGQAAKEFIAWLVKGRHHHHHH; His-tagged GLP-1 (7-36)) [reference compound]”, in [3] (0.2 uM 3H-OEA, estimated), the “concentration of GLP-1 to achieve half-maximal binding of OEA” value is 0.16 ± 0.05 µM.

As for `CCCCCCCC/C=C\CCCCCCCC(=O)OC(CO)CO` [2-OG, 2-oleoylglycerol], in assay [1], the “effect on cAMP responses to 200 μM of GLP-1 (7-36) amide” value is reported as “remarkably enhanced”, the “effect on dose-response curve for GLP-1 (7-36) amide to stimulate cAMP production” value was “markedly left-shifted” and the “effect on potency of Ex-4 to stimulate cAMP production” value is reported as “unaltered”. This compound yielded a Ki in [3] of 100 ± 30 nM. In addition, in assay [7], the “cAMP response to lipid present alone” value is given as “did not elicit cAMP responses”. The half-maximal effective concentration (EC50) in assay [8] is 2900 nM.

For `CCCCCCCC/C=C\CCCCCCCC(=O)O` [OA, oleic acid], the “effect on dose response curve of GLP-1 (7-36) amide” value in assay [1] is listed as “consistently but mildly left-shifted”.

For the compound `CCCCC/C=C\C/C=C\CCCCCCCC(=O)O` [LA, linoleic acid], in assay [1], the “effect on dose response curve of GLP-1 (7-36) amide” value is listed as “consistently but mildly left-shifted”.

In the case of `COC1C2OP(=O)(OCOC(C)=O)OCC2OC1n1c(Br)nc2c(N)ncnc21` (stereo not shown) [8-Br-2-O-Me-cAMP-AM, 8-Br-2′-O-Me-cAMP-AM], the “concentration at which half maximal reduction of BRET ratio is elicited (EC50)” value in assay [11] (setting [12]) stood at 2600 nM. Moreover, the BRET ratio reduction in [11] (concentration change from 0.2 μM to 50 μM) was 0.45 unit.

In the case of `C=C[C@@]1(C)CC(=O)[C@]2(O)[C@@]3(C)[C@@H](O)CCC(C)(C)[C@@H]3[C@H](O)[C@H](OC(C)=O)[C@@]2(C)O1` [forskolin], the “EC50 for reduction of BRET ratio” value in assay [10] (setting [12]) is 70 nM. Moreover, the “BRET ratio reduction, basal cAMP level to maximally stimulated” value in assay [10] (maximal forskolin stimulation) worked out at 0.3 unit.
